# Measured values reported in patent US10159265B2, “Feed composition for reducing ruminant methanogenesis” (priority 2012, dated 2018).
# Marks after values point to notes of the source that are not given here.
# Tests used:
# [1] = system: "in vitro" rumen fluid culture; assay: Biogas production in "in vitro" rumen fluid culture (pressure meter); format: cell-based, calves; set-up: Average biogas production / Cumulative biogas production / Biogas production: unit not given here; details: Exp 1; for Average biogas production: average over doses and incubation times
# Method: (§1) Two trials following an identical experimental protocol were designed to study the effect of different pure flavonoids on rumen fermentation using a simulatory “in vitro” system based on the experimental protocol described by Theodorou M K et al. (1994) Animal Feed Science and Technology, 48 (3), p. 185-197; Mauricio, R. M., et al. (1999) Animal Feed Science and Technology 79, 321-330.
# Gas production was determined from a semi-automatic pressure meter, the relationship between pressure levels and the produced gas volume was previously calculated.
# (§2) Rumen cannulated calves which received a mixed ration mainly composed of concentrate (90:10) were used as rumen fluid donor; feed composition is presented in Table 1. The inoculum was collected and filtered through two-layer surgical gauze and kept in thermo pots. Flavonoids (Table 2) plus 600 mg of concentrate (Table 1) and 60 mg of barley straw as the substrate were dosed by triplicate in preheated bottles (39° C.) and maintained under anaerobic conditions. Flavonoids isonaringin, neoeritrocin, poncirin were purchased from INDOFINE Chemical Company, Inc (USA). 10 ml of rumen fluid and 40 ml of incubation medium were added to the bottles (McDougall, El (1948) Studies on ruminant saliva. 1. The composition and output of sheep's saliva. Biochem J. 43(1) 99-109). Once the bottles were filled and the anaerobic condition was applied, the bottles were sealed and the incubation process was started in a hot water bath. […] Each sample was incubated in triplicate in two sets or batches.
# [2] = system: methanogenic (archea) populations; assay: Methane production in "in vitro" rumen fluid culture; format: cell-based, calves; set-up: Average methane production / Accumulated methane production / Methane production / Cumulative methane production: unit not given here; details: Exp 1
# From the text: as §1, §2
# The effects of flavonoids substances on fermentation activity of certain archea populations which are theoretically responsible for the methane production were analyzed.
# The experimental design allows determining whether the effect of flavonoids on methane reduction was derived from a general reduction in microbial activity and biogas production or contrarily flavonoid affects specifically on methanogenic (archea) populations. The presence of flavonoids in the culture medium reduced methane contribution in the total biogas production (P<0.05) although, again, the aforementioned impact was heterogeneous.
# Streptococcus bovis = assay: qPCR relative quantification of Streptococcus bovis; format: cell-based; details: 12 hours of incubation
# Method: (§3) Rumen cannulated calves which received a mixed ration mainly composed of concentrate (90:10) were used as rumen fluid donor; feed composition is presented in Table 1. The inoculum was collected and filtered through two-layer surgical gauze and kept in thermo pots. Flavonoids (Table 2) plus 600 mg of concentrate (Table 1) and 60 mg of barley straw as the substrate were dosed by triplicate in preheated bottles (39° C.) and maintained under anaerobic conditions. Flavonoids isonaringin, neoeritrocin, poncirin were purchased from INDOFINE Chemical Company, Inc (USA). 10 ml of rumen fluid and 40 ml of incubation medium were added to the bottles (McDougall, El (1948) Studies on ruminant saliva. 1. The composition and output of sheep's saliva. Biochem J. 43(1) 99-109). Once the bottles were filled and the anaerobic condition was applied, the bottles were sealed and the incubation process was started in a hot water bath. Pressure readings were made at 2, 4, 6, 8, 12, 24, 36 and 48 hours. Each sample was incubated in triplicate in two sets or batches.
# (§4) After 12 hours of incubation, one bottle (replicate) from each treatment was opened, pH was recorded and the bottle was sampled for volatile fatty acids (Jouany, J. P., 1982 Science des Aliments 2, 131-144), lactate (Taylor, K. A. C. C., 1996. Appl. Biochem. Biotechnol. Enzym. Eng. Biotechnol. 56, 49-58) and ammonia (Chaney, A. L., Marbach, E. P., 1962. Clin. Chem. 8, 130-132) analyses.
# (§5) The environmental DNA was extracted using the technique proposed by Yu and Morrison (2004). Quantification of Streptococcus bovis, Megasphaera elsdenii and Selenomonas ruminantium DNA was done by qPCR using specific primers (Tajima, K. et al. 2001. Appl. Environ. Microb. 67, 2766-2774; Ouwerkerk, D., et al. 2002. J. Appl. Microbiol. 92, 753-758). Results were statistically analyzed using the PROC MIXED procedure of SAS statistical package (SAS, 2000, User's guide: Statistics, version 8 editions inst., Inc., Cary, N.C.). The least significant difference was used to compare the means. Differences between means in which P<0.05 were accepted as significant.
# Selenomonas ruminantium = assay: qPCR relative quantification of Selenomonas ruminantium; format: cell-based; details: 12 hours of incubation
# Method: as §3, §4, §5
# Megasphaera elsdenii = assay: qPCR relative quantification of Megasphaera elsdenii; format: cell-based; details: 12 hours of incubation
# Method: as §3, §4, §5
# ruminal bacteria = assay: Bacterial DNA concentration by qPCR; format: cell-based, calves; details: 12 hours of incubation
# Method: as §3, §4, §5
# [3] = system: "in vitro" ruminal fluid cultures; assay: Ammonia (N-NH3) concentration in "in vitro" ruminal fluid cultures; format: cell-based, calves; details: 72 h
# [4] = system: "in vitro" ruminal fluid cultures; assay: Volatile fatty acid concentration and molar proportions in "in vitro" ruminal fluid cultures; format: cell-based, calves; details: for % Acetate, molar ratio, average (μ) / % Butyrate, molar ratio, average (μ) / % Propionate, molar ratio, average (M) / VFA concentration, average (μ): average over incubation times
# From the text: as §1, §3
# […] P., 1982 Science des Aliments 2, 131-144), lactate (Taylor, K. A. C. C., 1996. Appl. Biochem. Biotechnol. Enzym. Eng. Biotechnol. 56, 49-58) and ammonia (Chaney, A. L., Marbach, E. P., 1962. Clin. Chem. 8, 130-132) analyses.
# [5] = system: "in vitro" ruminal fluid culture; assay: Lactate concentration in "in vitro" ruminal fluid culture; format: cell-based, calves; details: 12 hours of incubation
# From the text: as §1, §3, §4
# [6] = system: "in vitro" ruminal fluid cultures; assay: Ammonia (N-NH3) concentration in "in vitro" ruminal fluid cultures; format: cell-based, calves; details: for N-NH3 concentration, average (M): average over incubation times
# From the text: as §1, §3, §4
# [7] = average over doses and incubation times
compound,measurement,setting,value
"COc1ccc([C@@H]2CC(=O)c3c(O)cc(O[C@@H]4O[C@H](CO)[C@@H](O)[C@H](O)[C@H]4O[C@@H]4O[C@@H](C)[C@H](O)[C@@H](O)[C@H]4O)cc3O2)cc1 [Poncirin, poncirin]",Cumulative biogas production,[1]; 12 h incubation,180.63
same,Cumulative biogas production,[1]; 24 h incubation,224.90
same,Cumulative biogas production,[1]; 48 h incubation,262.00
same,Cumulative biogas production,[1]; 72 h incubation,284.28
same,Average biogas production,[1],237.95^cde
same,Average biogas production,[1]; listed as poncirin,238
same,Biogas production,"[1]; dose 1, 0.2 g/kg DM",234.43
same,Biogas production,"[1]; dose 2, 0.5 g/kg DM",241.48
same,Accumulated methane production,[2]; 12 h,19.19
same,Proportion of methane in the produced biogas,[2]; 12 h,10.62
same,Accumulated methane production,[2]; 24 h,24.43
same,Proportion of methane in the produced biogas,[2]; 24 h,11.94
same,Accumulated methane production,[2]; 48 h,30.50
same,Proportion of methane in the produced biogas,[2]; 48 h,16.54
same,Accumulated methane production,[2]; 72 h,34.07
same,Proportion of methane in the produced biogas,[2]; 72 h,16.34
same,Average methane production,[2]; [7],27.04^de
same,Proportion of methane in the produced biogas,[2]; [7],13.86^cd
same,Average methane production,"[2]; average over doses and incubation times, listed as poncirin",decreased
same,Methane production,"[2]; dose 1, 0.2 g/kg DM",26.61
same,Proportion of methane in the produced biogas,"[2]; dose 1, 0.2 g/kg DM",13.92
same,Methane production,"[2]; dose 2, 0.5 g/kg DM",27.47
same,Proportion of methane in the produced biogas,"[2]; dose 2, 0.5 g/kg DM",13.80
same,Relative Quantification 2^(ΔΔCt) S. bovis,Streptococcus bovis,0.44
same,Relative Quantification 2^(ΔΔCt) S. ruminantium,Selenomonas ruminantium,0.68
same,Relative Quantification 2^(ΔΔCt) M. elsdenii,Megasphaera elsdenii,0.98 ^ab
same,Bacteria DNA,ruminal bacteria,10.12 ^a μg/ml
same,N-NH3 concentration,[3],318.15 mg/L
same,"% Acetate, molar ratio",[4]; 0 h,62.51 mol/100 mol
same,"% Butyrate, molar ratio",[4]; 0 h,9.07 mol/100 mol
same,"% Propionate, molar ratio",[4]; 0 h,20.03 mol/100 mol
same,A/P rate (acetate/propionate),[4]; 0 h,3.12
same,VFA concentration,[4]; 0 h (initial constant value),13.78 mmol/L
same,"% Acetate, molar ratio",[4]; 12 h,55.44 mol/100 mol
same,"% Butyrate, molar ratio",[4]; 12 h,9.61 mol/100 mol
same,"% Propionate, molar ratio",[4]; 12 h,29.52 mol/100 mol
same,A/P rate (acetate/propionate),[4]; 12 h,1.88
same,VFA concentration,[4]; 12 h,36.98 mmol/L
same,"% Acetate, molar ratio",[4]; 72 h,55.36 mol/100 mol
same,"% Butyrate, molar ratio",[4]; 72 h,10.20 mol/100 mol
same,"% Propionate, molar ratio",[4]; 72 h,26.96 mol/100 mol
same,A/P rate (acetate/propionate),[4]; 72 h,2.05
same,VFA concentration,[4]; 72 h,51.87 mmol/L
same,"% Acetate, molar ratio, average (μ)",[4],57.77 mol/100 mol
same,"% Butyrate, molar ratio, average (μ)",[4],9.63 ^a mol/100 mol
same,"% Propionate, molar ratio, average (M)",[4],25.51 ^b mol/100 mol
same,"VFA concentration, average (μ)",[4],34.21 mmol/L
same,"% Propionate, molar ratio, average (M)",[4]; listed as poncirin,improved
same,Lactate,[5],87.5 mg/L
same,N-NH3 concentration,[6]; 0 h (initial constant value),149.99 mg/L
same,N-NH3 concentration,[6]; 12 h,159.33 mg/L
same,"N-NH3 concentration, average (M)",[6],209.16 mg/L
"C[C@@H]1O[C@@H](OC[C@H]2O[C@@H](Oc3cc(O)c4c(c3)O[C@H](c3ccc(O)cc3)CC4=O)[C@H](O)[C@@H](O)[C@@H]2O)[C@H](O)[C@H](O)[C@H]1O [Isonaringin, isonaringin]",Cumulative biogas production,[1]; 12 h incubation,185.58
same,Cumulative biogas production,[1]; 24 h incubation,223.38
same,Cumulative biogas production,[1]; 48 h incubation,258.85
same,Cumulative biogas production,[1]; 72 h incubation,278.66
same,Biogas production,"[1]; dose 1, 0.2 g/kg DM",235.13
same,Biogas production,"[1]; dose 2, 0.5 g/kg DM",238.1
same,Accumulated methane production,[2]; 12 h,19.84
same,Proportion of methane in the produced biogas,[2]; 12 h,10.68
same,Accumulated methane production,[2]; 24 h,24.94
same,Proportion of methane in the produced biogas,[2]; 24 h,13.56
same,Accumulated methane production,[2]; 48 h,30.81
same,Proportion of methane in the produced biogas,[2]; 48 h,16.79
same,Accumulated methane production,[2]; 72 h,34.08
same,Proportion of methane in the produced biogas,[2]; 72 h,16.89
same,Average methane production,[2]; [7],27.42^de
same,Proportion of methane in the produced biogas,[2]; [7],14.48^bc
same,Average methane production,"[2]; average over doses and incubation times, listed as isonaringin",decreased
same,Methane production,"[2]; dose 1, 0.2 g/kg DM",27.40
same,Proportion of methane in the produced biogas,"[2]; dose 1, 0.2 g/kg DM",14.53
same,Methane production,"[2]; dose 2, 0.5 g/kg DM",27.43
same,Proportion of methane in the produced biogas,"[2]; dose 2, 0.5 g/kg DM",14.43
same,Relative Quantification 2^(ΔΔCt) S. bovis,Streptococcus bovis,0.46
same,Relative Quantification 2^(ΔΔCt) S. ruminantium,Selenomonas ruminantium,0.86
same,Relative Quantification 2^(ΔΔCt) M. elsdenii,Megasphaera elsdenii,1.08 ^ab
same,Bacteria DNA,ruminal bacteria,16.18 ^ab μg/ml
same,N-NH3 concentration,[3],322.53 mg/L
same,"% Acetate, molar ratio",[4]; 0 h,62.51 mol/100 mol
same,"% Butyrate, molar ratio",[4]; 0 h,9.07 mol/100 mol
same,"% Propionate, molar ratio",[4]; 0 h,20.03 mol/100 mol
same,A/P rate (acetate/propionate),[4]; 0 h,3.12
same,VFA concentration,[4]; 0 h (initial constant value),13.78 mmol/L
same,"% Acetate, molar ratio",[4]; 12 h,53.94 mol/100 mol
same,"% Butyrate, molar ratio",[4]; 12 h,10.31 mol/100 mol
same,"% Propionate, molar ratio",[4]; 12 h,30.20 mol/100 mol
same,A/P rate (acetate/propionate),[4]; 12 h,1.79
same,VFA concentration,[4]; 12 h,36.49 mmol/L
same,"% Acetate, molar ratio",[4]; 72 h,55.34 mol/100 mol
same,"% Butyrate, molar ratio",[4]; 72 h,10.24 mol/100 mol
same,"% Propionate, molar ratio",[4]; 72 h,26.94 mol/100 mol
same,A/P rate (acetate/propionate),[4]; 72 h,2.06
same,VFA concentration,[4]; 72 h,52.26 mmol/L
same,"% Acetate, molar ratio, average (μ)",[4],57.26 mol/100 mol
same,"% Butyrate, molar ratio, average (μ)",[4],9.87 ^ab mol/100 mol
same,"% Propionate, molar ratio, average (M)",[4],25.72 ^b mol/100 mol
same,"VFA concentration, average (μ)",[4],34.18 mmol/L
same,"% Propionate, molar ratio, average (M)",[4]; listed as isonaringin,improved
same,Lactate,[5],92.4 mg/L
same,N-NH3 concentration,[6]; 0 h (initial constant value),149.99 mg/L
same,N-NH3 concentration,[6]; 12 h,165.46 mg/L
same,"N-NH3 concentration, average (M)",[6],212.66 mg/L
